Results: publication PMC8113459, “Selective inhibition of cullin 3 neddylation through covalent targeting DCN1 protects mice from acetaminophen-induced liver toxicity” (Nature Communications, 2021)
“And” between values parts separate entries of the source, which are not always exact repeats. Equal values may be shown once.

Key:
[1] = system: NRF2 protein; assay: Western blot, NRF2 protein accumulation in cells; assay type: cell-based, human; conditions: 300 nM
Experimental: (§1) Western blotting was performed as described previously. Treated cells were lysed by RIPA buffer supplemented with protease inhibitor. The expression level of indicated proteins was examined by immunoblotting analysis and GAPDH was used as the loading control. Antibodies were purchased commercially: cullin 1 (sc-17775, 1:500 dilution) and cullin 2 (sc-166506, 1:500 dilution) from Santa Cruz Biotech (Santa Cruz, CA); cullin 4A (PA5-14542, 1:1000 dilution), cullin 4B (PA5-50647, 1:1000 dilution), and DCN3 (DCUN1D3, PA5-44000, 1:1000 dilution) from Thermo Fisher Scientific (Wayne, MI); cullin 3 (2759, 1:1000), NRF2 (12721, 1:1000 dilution), HO-1 (70081, 1:1000 dilution), and Bim (2819, 1:1000 dilution) from Cell Signaling Technology (Boston, MA); DCN1 (GWB-E3D700, 1:1000 dilution) from GenWay Biotech (San Diego, CA); and cullin 5 (A302-173A, 1:500 dilution) from Bethyl Labs (Montgomery, TX). Results are representative of two independent experiments.

[2] = Cell viability assay (WST-8), HCT116; assay type: cell-based, human; conditions: human, HCT116 cells, replicates, read-out: cell viability relative to control
Experimental: (§2) Cell viability assay was performed as previously described. The effect of DCN1 inhibitors on cell growth was evaluated by a WST-8 [2-(2-methoxy-4-nitrophenyl)-3-(4-nitrophenyl)-5-(2,4-disulfophenyl)-2H-tetrazolium, monosodium salt assay (Dojindo Molecular Technologies, Inc). Cells (2000–3000 cells in each well) were seeded in 96-well tissue culture plates in medium (100 μL) and treated with serial dilution of DCN1 inhibitors for 3 days. At the end of incubation, WST-8 dye (20 μL) was added to each well and incubated for 1–3 h, then the absorbance was measured in a microplate reader (Molecular Devices) at 450 nm. Cell growth inhibition was evaluated as the ratio of the absorbance of the sample to that of the control. The values were inserted into Prism software, and the curves and the EC50 values were produced by Prism software.

[3] = system: HCT116 cells; assay: Cell viability assay (WST-8), HCT116; assay type: cell-based, human; conditions: for cell viability relative to control: replicates
Experimental: as §2

[4] = target: T1, DCN1 (Homo sapiens, UniProt Q96GG9); assay: Competitive FP binding assay
Experimental: Competitive FP binding assay was performed as previously described. The IC50 and Ki values of DI-1548 and DI-1548DD were determined in competitive binding experiments. Mixtures of preincubated protein/probe complex solution in the assay buffer (196 μL) and compounds in DMSO (4 μL) were added into assay plates which were incubated at room temperature for 30 min with gentle shaking. The concentrations of DCN1 protein and fluorescent probe were 50 and 5 nM, respectively. […] FP values in millipolarization units were measured using the Infinite M-1000 plate reader (Tecan U.S., Research Triangle Park, NC) in Microfluor 1 96-well, black, round-bottom plates (Thermo Fisher Scientific, Waltham, MA) at an excitation wavelength of 485 nm and an emission wavelength of 530 nm. IC50 values were determined by nonlinear regression fitting of the competition curves using the dose–response inhibition equation (four parameters, variable slopes) included in the Prism/GraphPad software. Ki values were calculated using methods described previously.

[5] = Cell viability assay (WST-8), MDA-MB-231; assay type: cell-based, human; conditions: human, MDA-MB-231 cells, replicates, read-out: cell viability relative to control
Experimental: as §2

[6] = system: MDA-MB-231 cells; assay: Cell viability assay (WST-8), MDA-MB-231; assay type: cell-based, human; conditions: for cell viability relative to control: replicates
Experimental: as §2

[7] = system: U2OS cells; assay: Cell viability assay (WST-8), U2OS; assay type: cell-based, human; conditions: replicates
Experimental: as §2

[8] = Cell viability assay (WST-8), U2OS; assay type: cell-based, human; conditions: human, U2OS cells, replicates, read-out: cell viability relative to control
Experimental: as §2

[9] = system: neddylation of cullin 3; assay: Western blot, cullin 3 neddylation in cells of different tissue types (U2OS, THLE2, MDA-MB-231, KYSE70, HCT116); assay type: cell-based, human
Experimental: as §1

[10] = target: T1, DCN1; assay: Intact-protein mass spectrometric analysis, Method B (DCN1); assay type: binding; conditions: 3 h incubation, 100 nM protein
Experimental: Method B: Recombinant DCN1 or DCN3 protein (100 nM in 25 mM Tris 7.5, 200 mM NaCl, 1 mM DTT buffer) was incubated with 1.2-fold excess of the DCN1 inhibitors at 37 °C for 10 min, 1 h, or 3 h. Following incubation, the protein was analyzed by LC–MS (Agilent Q-TOF 6545) under the following conditions: fragmentor voltage, 300 V; skimmer voltage, 75 V; nozzle voltage, 100 V; sheath gas temperature, 350 °C; and drying gas temperature, 325 °C. MassHunter Qualitative Analysis software (Agilent) was used to analyze the data. Intact protein masses were obtained using the maximum entropy deconvolution algorithm. The mass spectrometry data in Supplementary Figs. 14–17 were generated by Method B.

[11] = Cell viability assay (WST-8), KYSE70; assay type: cell-based, human; conditions: human, KYSE70 cells, replicates, read-out: cell viability relative to control
Experimental: as §2

[12] = system: KYSE70 cells; assay: Cell viability assay (WST-8), KYSE70; assay type: cell-based, human; conditions: for cell viability relative to control: replicates
Experimental: as §2

T1 sequence (Q96GG9 whole entry): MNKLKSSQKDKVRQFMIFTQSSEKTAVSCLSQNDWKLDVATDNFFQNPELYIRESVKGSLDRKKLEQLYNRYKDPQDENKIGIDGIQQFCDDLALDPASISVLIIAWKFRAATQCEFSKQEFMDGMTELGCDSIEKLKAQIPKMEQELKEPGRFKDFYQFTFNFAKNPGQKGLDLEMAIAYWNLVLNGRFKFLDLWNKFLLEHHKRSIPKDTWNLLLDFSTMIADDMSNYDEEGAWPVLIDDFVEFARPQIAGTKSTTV

EC50 ([3]; Homo sapiens, HCT-116, 72 h, cell line assigned from panel order, read-out: EC50, cell growth inhibition): > 1000 nM
times less potent than DI-1548 in binding to DCN1 [4]: > 1000 times
FP signal of the competitive binding curve ([4]; Concentration (nM) 0.169351, duplicates): 48.4 and 48
FP signal of the competitive binding curve ([4]; Concentration (nM) 0.508053, duplicates): 47 and 44.7
FP signal of the competitive binding curve ([4]; Concentration (nM) 1.52416, duplicates): 42.8 and 45.5
FP signal of the competitive binding curve ([4]; Concentration (nM) 4.57247, duplicates): 46.4 and 45.6
FP signal of the competitive binding curve ([4]; Concentration (nM) 13.7174, duplicates): 45.7
FP signal of the competitive binding curve ([4]; Concentration (nM) 41.1523, duplicates): 43.9 and 44.9
FP signal of the competitive binding curve ([4]; Concentration (nM) 123.457, duplicates): 43.5 and 44.2
FP signal of the competitive binding curve ([4]; Concentration (nM) 370.37, duplicates): 42.9 and 41.1
FP signal of the competitive binding curve ([4]; Concentration (nM) 1111.11, duplicates): 36.2 and 35.7
FP signal of the competitive binding curve ([4]; Concentration (nM) 3333.33, duplicates): 28.3 and 29.7
FP signal of the competitive binding curve ([4]; Concentration (nM) 10000, duplicates): 20.5 and 22.6
IC50 ([4]; DCN1 50 nM, probe 5 nM, 30 min): 2880 nM
EC50 ([6]; Homo sapiens, MDA-MB-231, 72 h, cell line assigned from panel order, read-out: EC50, cell growth inhibition): > 1000 nM
covalent complex formation with DCN1 [10]: fails to form any detectable complex
Compound: C=C(CN1CCOCC1)C(=O)NC[C@H](NC(=O)[C@@H](Cc1nc2ccc(C(C)C)cc2s1)NC(=O)CC)C1CCCCC1 [DI-1548DD]
accumulation of NRF2 protein [1]: no obvious accumulation
viability at 72 h ([2]; conc 3, 72 h): 96.9%
viability at 72 h ([2]; conc 10, 72 h): 107%
viability at 72 h ([2]; conc 100, 72 h): 87.8%
viability at 72 h ([2]; conc 1000, 72 h): 79.7%
cell viability relative to control ([3]; conc 3, 72 h): 101.869 and 103.551
cell viability relative to control ([3]; conc 10, 72 h): 94.2056 and 90
cell viability relative to control ([3]; conc 30, 72 h): 80.7477 and 101.215 and 108.939
cell viability relative to control ([3]; conc 100, 72 h): 96.6355 and 107.727
cell viability relative to control ([3]; conc 300, 72 h): 79.5327 and 97.5701 and 109.546
cell viability relative to control ([3]; conc 1000, 72 h): 96.8224 and 90.3738
viability at 72 h ([5]; conc 10, 72 h): 93.6%
viability at 72 h ([5]; conc 30, 72 h): 108%
viability at 72 h ([5]; conc 100, 72 h): 104%
viability at 72 h ([5]; conc 300, 72 h): 104%
cell viability relative to control ([6]; conc 10, 72 h): 111.264 and 113.448
cell viability relative to control ([6]; conc 30, 72 h): 102.295 and 109.77
cell viability relative to control ([6]; conc 100, 72 h): 112.459 and 97.8161
cell viability relative to control ([6]; conc 300, 72 h): 97.7869 and 103.793
cell viability relative to control ([6]; conc 1000, 72 h): 105.329 and 127.049 and 101.954
cell viability relative to control ([7]; conc 10, 72 h): 109.342 and 93.2895 and 98.1579
cell viability relative to control ([7]; conc 30, 72 h): 118.158 and 95.5263 and 92.6316
cell viability relative to control ([7]; conc 100, 72 h): 108.684 and 93.421 and 101.974
cell viability relative to control ([7]; conc 300, 72 h): 103.684 and 90.921 and 92.2368
cell viability relative to control ([7]; conc 1000, 72 h): 95.1316 and 97.1053 and 98.2895
viability at 72 h ([8]; conc 10, 72 h): 90.3%
viability at 72 h ([8]; conc 1000, 72 h): 87.9%
times less potent than DI-1548 and DI-1859, respectively, on cullin 3 neddylation [9]: > 300 times
effect on the neddylation of cullin 3 ([9]; 100–300 nM): no significant effect
viability at 72 h ([11]; conc 10, 72 h): 98.7%
viability at 72 h ([11]; conc 300, 72 h): 88%
EC50 ([12]; Homo sapiens, KYSE-70, 72 h, cell line assigned from panel order, read-out: EC50, cell growth inhibition): > 1000 nM
cell viability relative to control ([12]; conc 10, 72 h): 101.942 and 101.216
cell viability relative to control ([12]; conc 30, 72 h): 111.396 and 109.174 and 90.4505
cell viability relative to control ([12]; conc 100, 72 h): 115.736 and 126.65 and 80.7614
cell viability relative to control ([12]; conc 300, 72 h): 86.0914 and 84.7716
cell viability relative to control ([12]; conc 1000, 72 h): 63.3503 and 88.731 and 70.4569
